Results published in patent US20250034216A1, “STEREOSELECTIVE COVALENT LIGANDS FOR ONCOGENIC AND IMMUNOLOGICAL PROTEINS” (The Scripps Research Institute, priority 2021, published 2025).

Key:
RAB39B_C23 = target: T1, RAB39B_C23 (Homo sapiens, UniProt Q96DA2); experiment: IA-DTB cysteine engagement; assay type: binding; details: 22Rv1 cells, 20 μM probe, 1 h, relative to DMSO
T1 construct: endogenous in cells; host or cells: 22Rv1
T1 sequence (Q96DA2 1-213): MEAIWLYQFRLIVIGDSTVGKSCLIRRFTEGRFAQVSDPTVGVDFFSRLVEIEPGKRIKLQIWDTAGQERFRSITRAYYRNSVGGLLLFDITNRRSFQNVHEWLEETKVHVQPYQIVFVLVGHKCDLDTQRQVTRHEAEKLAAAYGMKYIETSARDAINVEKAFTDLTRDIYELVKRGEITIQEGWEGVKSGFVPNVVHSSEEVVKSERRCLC
Method in brief: (§1)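 Read-out is TMT-based cysteine engagement, expressed as each reporter ion intensity divided by the average of the DMSO channels. Before that, probe-treated cell lysates were capped with IA-DTB, digested, enriched on streptavidin and TMT-tagged. PSMs with DMSO summed intensity <10,000 or DMSO CV >0.5 were excluded.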

ZBED4_C599 = target: T2, ZBED4_C599 (Homo sapiens, UniProt O75132); experiment: IA-DTB cysteine engagement; assay type: binding; details: 22Rv1 cells, 20 μM probe, 1 h, relative to DMSO
T2 construct: endogenous in cells; host or cells: 22Rv1
T2 sequence (O75132 1-1171): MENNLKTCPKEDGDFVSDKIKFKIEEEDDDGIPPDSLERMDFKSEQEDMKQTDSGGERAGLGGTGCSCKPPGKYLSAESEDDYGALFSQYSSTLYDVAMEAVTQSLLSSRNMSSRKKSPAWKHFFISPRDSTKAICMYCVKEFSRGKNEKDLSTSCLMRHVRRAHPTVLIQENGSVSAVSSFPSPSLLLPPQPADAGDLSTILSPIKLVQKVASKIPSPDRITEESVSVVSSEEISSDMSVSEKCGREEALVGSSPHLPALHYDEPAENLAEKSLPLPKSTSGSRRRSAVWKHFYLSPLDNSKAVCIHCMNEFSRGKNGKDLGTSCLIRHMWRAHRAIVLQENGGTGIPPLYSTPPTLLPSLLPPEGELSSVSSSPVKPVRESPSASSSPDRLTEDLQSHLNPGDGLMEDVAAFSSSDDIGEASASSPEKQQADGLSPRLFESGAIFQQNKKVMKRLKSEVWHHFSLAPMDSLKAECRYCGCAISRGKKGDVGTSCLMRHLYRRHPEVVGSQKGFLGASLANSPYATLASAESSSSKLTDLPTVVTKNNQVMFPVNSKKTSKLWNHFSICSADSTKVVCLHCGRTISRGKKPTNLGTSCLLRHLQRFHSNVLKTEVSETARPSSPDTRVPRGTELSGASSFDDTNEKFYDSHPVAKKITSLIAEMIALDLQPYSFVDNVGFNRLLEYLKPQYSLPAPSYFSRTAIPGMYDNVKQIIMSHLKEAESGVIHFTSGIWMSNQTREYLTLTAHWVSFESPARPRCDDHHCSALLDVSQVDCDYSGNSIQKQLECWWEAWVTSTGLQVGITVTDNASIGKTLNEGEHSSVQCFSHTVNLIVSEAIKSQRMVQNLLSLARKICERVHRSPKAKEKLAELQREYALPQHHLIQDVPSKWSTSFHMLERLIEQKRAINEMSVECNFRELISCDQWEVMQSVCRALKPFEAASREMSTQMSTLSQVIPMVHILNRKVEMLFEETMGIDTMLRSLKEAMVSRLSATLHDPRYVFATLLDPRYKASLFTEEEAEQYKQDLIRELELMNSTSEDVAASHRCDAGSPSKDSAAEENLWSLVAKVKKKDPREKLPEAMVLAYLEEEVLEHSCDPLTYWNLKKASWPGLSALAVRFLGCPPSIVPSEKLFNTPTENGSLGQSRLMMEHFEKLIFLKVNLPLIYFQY
Method in brief: as §1

SMILES	% engagement RAB39B_C23 (RAB39B_C23) [%]	% engagement ZBED4_C599 (ZBED4_C599) [%]
C=CC(=O)N1C[C@@H](c2ccc(Br)cc2)[C@H]1C(=O)Nc1cccc2cccnc12 [MY-1A, (2S,3R)-1-acryloyl-3-(4-bromophenyl)-N-(quinolin-8-yl)azetidine-2-carboxamide]	24.5	16
C=CC(=O)N1C[C@H](c2ccc(Br)cc2)[C@@H]1C(=O)Nc1cccc2cccnc12 [MY-1B, (2R,3S)-1-acryloyl-3-(4-bromophenyl)-N-(quinolin-8-yl)azetidine-2-carboxamide]	18.5	39
C=CC(=O)N1C[C@H](c2ccc(Br)cc2)[C@H]1C(=O)Nc1cccc2cccnc12 [MY-3A, (2S,3S)-1-acryloyl-3-(4-bromophenyl)-N-(quinolin-8-yl)azetidine-2-carboxamide]	−53	21
C=CC(=O)N1C[C@H](c2ccc(Br)cc2)[C@H]1C(=O)Nc1cccc2cccnc12 [MY-3B, (2S,3S)-1-acryloyl-3-(4-bromophenyl)-N-(quinolin-8-yl)azetidine-2-carboxamide]	67	83.5
